Measurements taken from paper PMC11909988 (BMC Cancer, 2025).
“Also recorded” adds a separate entry of the source.

How the values were obtained:
[1] = tested on: IDH1-R132H mutant U87MG cells; test: FRET imaging of D2HGlo cellular probes in IDH1 mutant glioma cells; assay type: cell-based, human
[2] = tested on: IDH1-R132H mutant U87MG cells; test: D-2-HG in cell culture supernatant measured with D2HGlo, mutant cells; assay type: cell-based, human; details: 48 h
[3] = tested on: IDH1 wildtype U87MG cells; test: FRET imaging of D2HGlo cellular probes in IDH1 wildtype glioma cells; assay type: cell-based, human; details: for acute change of Cyto-D2HGlo FRET ratio: approximately 5.5 min
[4] = target: D2HGlo (Achromobacter denitrificans, UniProt A0A6N0JVZ6); test: Ligand binding and selectivity of purified D2HGlo; details: for response of D2HGlo (FRET ratio) to metabolite: concentrations up to 100 µM
D2HGlo, sequence (A0A6N0JVZ6 1-238, other chains not shown): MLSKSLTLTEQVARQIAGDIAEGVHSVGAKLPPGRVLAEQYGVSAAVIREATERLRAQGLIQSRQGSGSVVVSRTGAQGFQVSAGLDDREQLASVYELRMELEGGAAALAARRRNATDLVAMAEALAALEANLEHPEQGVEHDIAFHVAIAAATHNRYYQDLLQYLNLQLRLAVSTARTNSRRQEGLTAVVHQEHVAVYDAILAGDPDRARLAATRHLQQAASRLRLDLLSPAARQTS

[5] = tested on: mutant IDH1; details: newly diagnosed and advanced cancer; cited from earlier work

O=CC[C@@H](O)[C@H](O)[C@H](O)CO [2-DG, 2-Deoxy-D-glucose]
acute change of Cyto-D2HGlo FRET ratio ([1]; 2-DG 10 mM, approximately 5.5 min): reduced the FRET ratio
concentration of D-2-HG in the supernatant ([2]; 2-DG 10 mM): reduced to levels comparable to untreated wildtype cells
acute change of Cyto-D2HGlo FRET ratio ([3]; 2-DG 10 mM): unaffected

N[C@@H](CCC(=O)O)C(=O)O [Glutamate, L-glutamic acid]
response of D2HGlo (FRET ratio) to metabolite [4]: did not respond

C[C@H](O)C(=O)[O-].[Na+] [Lactate, sodium L-lactate]
response of D2HGlo (FRET ratio) to metabolite [4]: did not respond

CC(=O)C(=O)O [Pyruvate, Sodium pyruvate]
response of D2HGlo (FRET ratio) to metabolite [4]: did not respond

O=C(O)CN(CCN(CC(=O)O)CC(=O)O)CC(=O)O [EDTA]
effect on D-2-HG induced FRET response of D2HGlo ([4]; 1 mM EDTA in titration buffer): prevents D-2-HG induced changes to FRET ratio

CN(C)c1ccc(C2Nc3ccc4ccccc4c3C3=C2C(=O)CC(C)(C)C3)cc1Br (stereo not drawn) [Compound 968]
acute change of Cyto-D2HGlo FRET ratio ([1]; Compound 968 1 µM, approximately 5.5 min): did not elicit any changes
D-2-HG accumulation in cell culture supernatants ([2]; Compound 968 1 µM, wildtype and mutant cells (Fig. 5d)): nor did it effect D-2-HG accumulation
acute change of Cyto-D2HGlo FRET ratio ([3]; Compound 968 1 µM): did not elicit any changes

N#Cc1ccnc(N2C(=O)CC[C@H]2C(=O)N(c2cncc(F)c2)[C@H](C(=O)NC2CC(F)(F)C2)c2ccccc2Cl)c1 [AG-120]
2-HG levels in patients [5]: reduction of 2-HG to levels resembling those seen in healthy populations
average FRET ratio of Cyto-, Nuc- and Mito-D2HGlo (D-2-HG level) ([1]; AG-120 3 µM, 48 h): reduced the average FRET ratio in all three compartments in IDH1 mutant cells to levels comparable with IDH1 wildtype cells; also recorded: decrease to levels resembling those found in IDH1 wildtype cells
acute change of Cyto-D2HGlo FRET ratio ([1]; AG-120 10 μM, 15 min following drug addition): did not result in acute changes
D-2-HG concentration of supernatant ([2]; AG-120 3 µM): 2.88 ± 0.59 µM
D-2-HG levels (FRET ratio) ([3]; AG-120 3 µM, 48 h): no effect
